Measurements as given in US4616087A, “2,5-bis alkyl sulfonyl and 2,5-bis alkyl thio substituted-pyridines” (The Dow Chemical Company, priority 1982, dated 1986).

test system: rhinovirus type 1A (RV-1A), rhinovirus type 2 (RV-2) or Coxsackie A21 virus (Cox A21); assay: Tissue Culture testing, antiviral activity (virus not specified); assay type: cell-based; settings: HeLa cells; qualitative
Protocol: Monolayered HeLa cells in 16 millimeter (mm) tissue culture dishes were treated with 1 ml of culture medium (Eagles medium supplemented with fetal calf serum) containing subject compound at an appropriate concentration or containing no compound at all. Culture media such as those described herein are more fully described in standard texts, as for example, Kuchler's Biochemical Methods in Cell Culture and Virology, Dowden, Hutchinson and Ross, Inc., Stroudsberg, PA (1977). Following treatment, cells were challenged with 0.05 ml of rhinovirus type 1A (RV-1A), rhinovirus type 2 (RV-2) or Coxsackie A21 virus (Cox A21) in culture medium. Some of the compounds were also tested against rhinovirus type 5 (RV-5), rhinovirus type 8 (RV-8) or rhinovirus type 64 (RV-64). Cell controls received no viruses.

| Compound | antiviral activity in the Tissue Culture testing |
| --- | --- |
| CC(=O)c1ccc(Oc2ccc(S(=O)(=O)C(C)C)cn2)cc1 [1-(4-((5-((1-methylethyl)sulfonyl)-2-pyridinyl)oxy)phenyl)ethanone] | exhibiting antiviral activity |
| CC(=O)c1ccc(Oc2ccc(S(C)(=O)=O)cn2)cc1 [1-(4-((5-(methylsulfonyl)-2-pyridinyl)oxy)phenyl)ethanone] | exhibiting antiviral activity |
| CCS(=O)(=O)c1cccnc1Oc1ccc(Cl)c(Cl)c1 [2-(3,4-dichlorophenoxy)-3-(ethylsulfonyl)pyridine] | exhibiting antiviral activity |
| O=S(=O)(Cc1ccccc1)c1ccc(Oc2ccc(Cl)c(Cl)c2)nc1 [2-(3,4-dichlorophenoxy)-5-((phenylmethyl)sulfonyl)pyridine] | exhibiting antiviral activity |
| O=S(=O)(c1ccc(Oc2ccc(Cl)c(Cl)c2)nc1)C1CCCCC1 [2-(3,4-dichlorophenoxy)-5-(cyclohexylsulfonyl)pyridine] | exhibiting antiviral activity |
| CCS(=O)(=O)c1ccc(Oc2ccc(Cl)c(Cl)c2)nc1 [2-(3,4-dichlorophenoxy)-5-(ethylsulfonyl)pyridine] | exhibiting antiviral activity |
| CS(=O)(=O)c1ccc(Oc2ccc(Cl)c(Cl)c2)nc1 [2-(3,4-dichlorophenoxy)-5-(methylsulfonyl)pyridine] | exhibiting antiviral activity |
| CCCCCCS(=O)(=O)c1ccc(Oc2ccc(Cl)c(Cl)c2)nc1 [2-(3,4-dichlorophenoxy)-5-(n-hexylsulfonyl)pyridine] | exhibiting antiviral activity |
| CS(=O)(=O)c1ccc(Oc2cccc(Br)c2)nc1 [2-(3-bromophenoxy)-5-(methylsulfonyl)pyridine] | exhibiting antiviral activity |
| CC(C)(C)c1ccc(Oc2ccc(S(C)(=O)=O)cn2)cc1 [2-(4-(1,1-dimethylethyl)phenoxy)-5-(methylsulfonyl)pyridine] | exhibiting antiviral activity |
| CSc1ccc(Oc2ccc(S(C)(=O)=O)cn2)cc1 [2-(4-(methylthio)phenoxy)-5-(methylsulfonyl)pyridine] | exhibiting antiviral activity |
| CC(C)S(=O)(=O)c1ccc(Oc2ccc(Br)cc2)nc1 [2-(4-bromophenoxy)-5-((1-methylethyl)sulfonyl)pyridine] | exhibiting antiviral activity |
| O=S(=O)(Cc1ccccc1)c1ccc(Oc2ccc(Br)cc2)nc1 [2-(4-bromophenoxy)-5-((phenylmethyl)sulfonyl)pyridine] | exhibiting antiviral activity |
| O=S(=O)(c1ccc(Oc2ccc(Br)cc2)nc1)C1CCCCC1 [2-(4-bromophenoxy)-5-(cyclohexylsulfonyl)pyridine] | exhibiting antiviral activity |
| CS(=O)(=O)c1ccc(Oc2ccc(Br)cc2)nc1 [2-(4-bromophenoxy)-5-(methylsulfonyl)pyridine] | exhibiting antiviral activity |
| O=S(=O)(c1ccccc1)c1ccc(Oc2ccc(Br)cc2)nc1 [2-(4-bromophenoxy)-5-(phenylsulfonyl)pyridine] | exhibiting antiviral activity |
| CCS(=O)(=O)c1ccc(Oc2ccc(Cl)cc2)nc1 [2-(4-chlorophenoxy)-5-(ethylsulfonyl)pyridine] | exhibiting antiviral activity |
| CS(=O)(=O)c1ccc(Oc2ccc(Cl)cc2)nc1 [2-(4-chlorophenoxy)-5-(methylsulfonyl)pyridine] | exhibiting antiviral activity |
| CS(=O)(=O)c1ccc(Oc2cccc(C#N)c2)nc1 [3-((5-(methylsulfonyl)-2-pyridinyl)oxy)benzonitrile] | exhibiting antiviral activity |
| CS(=O)(=O)c1ccc(Oc2ccc(C#N)cc2)nc1 [4-((5-(methylsulfonyl)-2-pyridinyl)oxy)benzonitrile] | exhibiting antiviral activity |
| CCS(=O)(=O)c1ccc(Oc2cc(Cl)c(Cl)cc2Cl)nc1 [5-(ethylsulfonyl)-2-(2,4,5-trichlorophenoxy)pyridine] | exhibiting antiviral activity |
| CCS(=O)(=O)c1ccc(Oc2ccc(Oc3ccccc3)cc2)nc1 [5-(ethylsulfonyl)-2-(4-phenoxyphenoxy)pyridine] | exhibiting antiviral activity |
| CS(=O)(=O)c1ccc(Oc2ccc(Oc3ccccc3)cc2)nc1 [5-(methylsulfonyl)-2-(4-phenoxyphenoxy)pyridine] | exhibiting antiviral activity |
| CS(=O)(=O)c1cccnc1Oc1ccc(C(=O)c2ccccc2)cc1 [(4-((3-(methylsulfonyl)-2-pyridinyl)oxy)phenyl)phenylmethanone] | exhibiting antiviral activity |
| CC(C)S(=O)(=O)c1ccc(Oc2ccc(C(=O)c3ccccc3)cc2)nc1 [(4-((5-((1-methylethyl)sulfonyl)-2-pyridinyl)oxy)phenyl)phenylmethanone] | exhibiting antiviral activity |
| O=C(c1ccccc1)c1ccc(Oc2ccc(S(=O)(=O)C3CCCCC3)cn2)cc1 [(4-((5-(cyclohexylsulfonyl)-2-pyridinyl)oxy)phenyl)phenylmethanone] | exhibiting antiviral activity |
| CCS(=O)(=O)c1ccc(Oc2ccc(C(=O)c3ccccc3)cc2)nc1 [(4-((5-(ethylsulfonyl)-2-pyidinyl)oxy)phenyl)phenylmethanone] | exhibiting antiviral activity |
| CS(=O)(=O)c1ccc(Oc2ccc(C(=O)c3ccccc3)cc2)nc1 [(4-((5-(methylsulfonyl)-2-pyridinyl)oxy)phenyl)phenylmethanone] | exhibiting antiviral activity |
| CCCCCCS(=O)(=O)c1ccc(Oc2ccc(C(=O)c3ccccc3)cc2)nc1 [(4-((5-(n-hexylsulfonyl)-2-pyridinyl)oxy)phenyl)phenylmethanone] | exhibiting antiviral activity |
